Values joined by “and” are separate entries in the source; they are usually repeats but may differ in a detail not shown here. Identical values can stand only once. “Also recorded” adds a separate entry of the source. Where no end group is shown, it is not given here.
Columns and labels:
Format in all cases: biochemical
[1] = target: T1, Vaccinia topoisomerase (type Ib) (Vaccinia virus, UniProt P68698); assay: biochemical; details: for IC50: IC50 for DNA cleavage (covalent adduct formation)
T1 construct: made in house; host or cells: Escherichia coli BL21 infected with bacteriophage λCE6

[2] = target: T2, bacteriophage λ Integrase (Int) (Escherichia phage lambda, UniProt P03700); assay: Int-mediated bent-L recombination; details: for rank of potency at inhibiting recombination among individual peptides: FIG. 6A
T2 sequence (P03700 1-356): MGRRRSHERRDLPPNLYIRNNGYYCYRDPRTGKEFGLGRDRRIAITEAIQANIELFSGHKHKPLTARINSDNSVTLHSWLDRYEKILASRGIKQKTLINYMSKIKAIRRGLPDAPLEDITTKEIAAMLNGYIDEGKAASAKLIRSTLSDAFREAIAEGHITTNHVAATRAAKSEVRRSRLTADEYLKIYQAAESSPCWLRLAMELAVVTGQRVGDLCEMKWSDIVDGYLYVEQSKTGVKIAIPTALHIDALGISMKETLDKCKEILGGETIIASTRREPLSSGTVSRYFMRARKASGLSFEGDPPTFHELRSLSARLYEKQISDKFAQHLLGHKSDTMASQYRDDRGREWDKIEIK
T2 sequence (P0A6X7 1-99 partner): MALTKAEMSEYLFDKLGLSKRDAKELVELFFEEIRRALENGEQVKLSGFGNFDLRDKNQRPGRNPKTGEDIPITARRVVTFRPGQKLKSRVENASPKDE
T2 sequence (P0A6Y1 1-94 partner): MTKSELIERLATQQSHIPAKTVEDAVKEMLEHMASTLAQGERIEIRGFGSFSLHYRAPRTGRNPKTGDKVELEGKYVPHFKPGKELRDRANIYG
Protocol: Recombination Assays. Recombination assays were performed as described (Segall, 1998). Briefly, reactions were performed in a total volume of 10 μl and typically contained 1 nM radiolabeled att site as specified, 4 nM unlabeled att site, 50 ng salmon sperm DNA as nonspecific competitor, 44 mM Tris-Cl (pH 8.0), 60 mM KCl, 0.05 mg/ml bovine serum albumin, 7-11 mM Tris borate (pH 8.9), 5 mM spermidine, 1.3 mM EDTA, and 14.6% v/v glycerol. Int and IHF were present at 55 nM and 35 nM final concentrations respectively. During screening, peptide libraries were incubated with Int on ice for 20 minutes (in the same buffer), and the mix was then added to the rest of the recombination reaction. Final concentrations of peptides are specified for each experiment. Reactions were incubated for 60-90 minutes at 30° C. or 37° C., were stopped with 0.2× volume of 2% SDS, layered onto 5% polyacrylamide Tris/SDS gels, and electrophoresed in 1× Tris Tricine SDS buffer at 100 mA (Segall, 1998). Dried gels were visualized and quantitated using a Molecular Dynamics PhosphorImager.
Int Assays. Site-specific recombination and gel mobility shift assays were performed as described (Segall, 1998). Briefly, reactions were performed in a total volume of 10 or 20 μl and typically contained 1-2 nM radiolabeled att site as specified, 4 nM unlabeled att site, 100-300 ng salmon sperm DNA as nonspecific competitor, 44 mM Tris-Ci (pH 8.0), 60 mM KCl, 0.05 mg/ml bovine serum albumin, 7 mM Tris borate (pH 8.9), 5 mM spermidine, 1.3 mM EDTA, and 14.6% v/v glycerol. Any deviation from this formulation is noted in the figure legends. Gel shift reactions were incubated for 90 minutes at 37° C., layered without loading dyes onto 5% native polyacrylamide gel (29 acrylamide: 1 bis-acrylamide) and electrophoresed in 0.5× Tris borate EDTA buffer. Recombination reactions were stopped with 0.2× volume of 2% SDS, layered onto 5% polyacrylamide Tris/SDS gels, and electrophoresed in 1× Tris Tricine SDS buffer at 100 mA (Segall, 1998). Dried gels were visualized and quantitated using a Molecular Dynamics PhosphorImager. […]

[3] = target: bacteriophage λ Integrase (Int) (Escherichia phage lambda, UniProt P03700); assay: Int-mediated excisive recombination; details: for IC50: IC50, inhibition of excisive recombination, excision pathway
Protocol: FIG. 11 depicts effect of peptide KWWCRW (diamonds) and peptide KWWWRW (squares) on the remaining 3 pathways of Int-mediated recombination. Recombination extents were normalized to the amount of recombination in untreated reactions and expressed as relative % recombination. A. Effect of peptides on integrative recombination (IC50 values for both peptides are roughly 0.2 μM). Reactions were assembled as for bent-L recombination except that they were incubated at room temperature, the substrates were a supercoiled plasmid (4.8 kb) carrying attP and ^32P labeled 91 bp PCR fragment encoding attB. […] The recombination substrates were PCR fragments encoding the attL (^32P-labeled) and attR sites. Reactions contained 50 NM Xis in addition to Int and IHF (37 nM), as well as 100 ng salmon sperm DNA, and were incubated at room temperature. C. Effect of peptides on straight-L recombination (IC50 values for peptide KWWCRW is 0.06 μM, while for peptide KWWWRW is slightly over 0.1 μM). Reactions were assembled as for bent-L recombination except that they were incubated at room temperature; the substrates were two PCR fragments, one of which was ^32P-labeled and 187 bp, the other of which was unlabeled and 496 bp.
Int Assays. Site-specific recombination and gel mobility shift assays were performed as described (Segall, 1998). Briefly, reactions were performed in a total volume of 10 or 20 μl and typically contained 1-2 nM radiolabeled att site as specified, 4 nM unlabeled att site, 100-300 ng salmon sperm DNA as nonspecific competitor, 44 mM Tris-Ci (pH 8.0), 60 mM KCl, 0.05 mg/ml bovine serum albumin, 7 mM Tris borate (pH 8.9), 5 mM spermidine, 1.3 mM EDTA, and 14.6% v/v glycerol. […] Dried gels were visualized and quantitated using a Molecular Dynamics PhosphorImager.
Excision reactions: Reactions were performed in 10 μL volume containing 20 mM Tris-HCl pH 8, 5 mM spermidine, 0.2 μg BSA, 75 ng to 0.15 μg salmon sperm DNA, 30 mM KCl, and TE (recombination mix). […] All gel images were visualized with a PhosphorImager (Molecular Dynamics) and quantitated with ImageQuant software (Molecular Dynamics).

[4] = IC50, inhibition of bent-L recombination, bent-L pathway

Row | Substance | effect on rate of transesterification [1] | inhibition of covalent adduct formation [1] [%] | IC50 [1] | IC50 [2, 4] | rank of potency at inhibiting recombination among individual peptides ([2]; dose response curves) | IC50 [3] | reduction of covalent adduct formation [1] [%] | inhibition at 0.7 µM ([1]; read-out: inhibition of cleavage) [%] | effect on recombination ([2]; 1 μM peptide) | effect on recombination ([2]; 10 μM peptide) | effect on transesterification (DNA cleavage) [1] | EC50 [2] [µM] | effect on recombination ([2]; 100 μM, the highest peptide concentration tested) | IC50 ([2]; IC50, accumulation of Holliday junctions, bent-L pathway) [µM] | peptide concentration at which the most HJs accumulate ([2]; bent-L pathway) | rank of potency at causing the accumulation of HJs among individual peptides ([2]; dose response curves, FIG. 6B) | EC50 [3] [µM]
1 | KWWWRW-NH2 [Peptide 56, KWWWRW] | slowed the rate of transesterification | 99 | ~0.5 µM | ~0.04 µM | most potent at inhibiting recombination | ~1.1 µM | – | – | – | – | – | – | – | – | – | – | –
2 | KWWCRW-NH2 [Peptide 59, KWWCRW] | slowed the rate of transesterification | 99 | ~0.5 µM and 0.5 µM | < 0.1 µM and 0.02 µM | most potent at inhibiting recombination | 1.1 µM and ~1.1 µM | 90 | 40 | almost complete block on recombination | inhibited completely | – | – | – | – | – | – | –
3 | WKHYNY-NH2 [Peptide 52, WKHYNY] | – | – | – | – | – | – | – | – | – | – | did not inhibit transesterification; also recorded: do not inhibit cleavage | 0.2 to 0.4 | does not inhibit it completely; also recorded: does not inhibit recombination completely | 0.2 | about 2 μM | most potent at causing the accumulation of HJs | 10 to 20

— patent US20040002441A1, “Recombination modulators and methods for producing and using the same” (priority 2000, published 2004)
